System: A549 cells
Assay: Cell migration assay (24-well transwell, laminin)
Assay type: cell-based, human
Settings: Homo sapiens, A549, 6 h, laminin 10 μg/mL in lower well, test compounds 0.39˜100 μM, migrated cells counted, read-out: Inhibitory activity against cell migration
Summary of the method: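 Serum-free RPMI1640 transwell (8.0 μm pore) with laminin (10 μg/mL) in lower well; A549 cells (1×10^6 cells/mL) and compounds (0.39–100 μM) in both chambers, 6 h at 37 °C. Hematoxylin-stained cells on membrane underside counted at three fields (×20); IC50 by non-linear regression.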

Structure (SMILES) | IC50
COc1ccc(CCN(c2nc3ccc(Cl)cc3s2)C(C)c2ccc(C(=O)O)cc2)cc1 (stereo not shown) [Example 108, 4-(1-{(6-chloro-benzo[d]thiazol-2-yl)[2-(4-methoxyphenyl)ethyl]amino}ethyl)benzoic acid] | > 10 µM
COc1ccc(CCN(c2nc3cc(F)c(F)cc3s2)C(C)c2ccc(C(=O)O)cc2)cc1 (stereo not shown) [Example 100, 4-(1-{(5,6-difluorobenzo[d]thiazol-2-yl)[2-(4-methoxyphenyl)ethyl]amino}ethyl)benzoic acid] | > 10 µM
COc1ccc(CCN(c2nc3cccc(C(F)(F)F)c3s2)C(C)c2ccc(C(=O)O)cc2)cc1 (stereo not shown) [Example 106, 4-(1-{[2-(4-methoxyphenyl)ethyl][7-(trifluoromethyl)-benzo[d]thiazol-2-yl]amino}ethyl)benzoic acid] | > 10 µM
O=C(O)c1ccc(CN(CCc2cccc(Cl)c2)c2nc3cccc(F)c3s2)cc1 [Example 5, 4-{[[2-(3-chlorophenyl)ethyl](7-fluorobenzo[d]thiazol-2-yl)amino]methyl}benzoic acid] | > 10 µM
COc1ccc(CCN(Cc2ccc(C(=O)O)cc2)c2nc3cccc(F)c3s2)c(OC)c1 [Example 27, 4-({[2-(2,4-dimethoxyphenyl)ethyl](7-fluorobenzo[d]thiazol-2-yl)amino}methyl)benzoic acid] | 1 to 10 µM
CCC(c1ccc(C(=O)O)cc1)N(CCc1ccc(OC)cc1C)c1nc2cccc(F)c2s1 (stereo not shown) [Example 74, 4-(1-{(7-fluorobenzo[d]thiazol-2-yl)[2-(4-methoxy-2-methylphenyl)ethyl]amino}propyl)benzoic acid] | > 10 µM
CC(c1ccc(C(=O)O)cc1)N(CCc1cc(F)c(F)c(F)c1)c1nc2cccc(F)c2s1 (stereo not shown) [Example 58, 4-(1-{(7-fluorobenzo[d]thiazol-2-yl)[2-(3,4,5-trifluorophenyl)ethyl]amino}ethyl)benzoic acid] | > 10 µM
CC(c1ccc(C(=O)O)cc1)N(CCc1cccc(F)c1F)c1nc2cccc(F)c2s1 (stereo not shown) [Example 57, 4-(1-{[2-(2,3-difluorophenyl)ethyl](7-fluorobenzo[d]thiazol-2-yl)amino}ethyl)benzoic acid] | > 10 µM
COc1ccc(CCN(Cc2ccc(C(=O)O)cc2)c2nc3ccc(C)cc3s2)cc1 [Example 97, 4-({[2-(4-methoxyphenyl)ethyl](6-methyl-benzo[d]thiazol-2-yl)amino}methyl)benzoic acid] | > 10 µM
CCOc1ccc(CCN(Cc2ccc(C(=O)O)cc2)c2nc3cccc(F)c3s2)cc1OC [Example 25, 4-({[2-(4-ethoxy-3-methoxyphenyl)ethyl](7-fluorobenzo[d]thiazol-2-yl)amino}methyl)benzoic acid] | > 10 µM
COc1ccc(CCN(Cc2ccc(C(=O)O)cc2)c2nc3ccc(C)c(F)c3s2)cc1 [Example 94, 4-({(7-fluoro-6-methyl-benzo[d]thiazol-2-yl)[2-(4-methoxyphenyl)ethyl]amino}methyl)benzoic acid] | < 1 µM
COc1ccc(CCN(Cc2ccc(C(=O)O)cc2)c2nc3ccc(F)c(F)c3s2)cc1 [Example 90, 4-({(6,7-difluorobenzo[d]thiazol-2-yl)-[2-(4-methoxyphenyl)ethyl]amino}methyl)benzoic acid] | < 1 µM
COc1ccc(CCN(c2nc3ccc(C)cc3s2)C(C)c2ccc(C(=O)O)cc2)cc1 (stereo not shown) [Example 111, 4-(1-{[2-(4-methoxyphenyl)ethyl](6-methyl-benzo[d]thiazol-2-yl)amino}ethyl)benzoic acid] | > 10 µM
CCC(c1ccc(C(=O)O)cc1)N(CCc1ccc(OC)c(C)c1)c1nc2cccc(F)c2s1 (stereo not shown) [Example 73, 4-(1-{(7-fluorobenzo[d]thiazol-2-yl)[2-(4-methoxy-3-methylphenyl)ethyl]amino}propyl)benzoic acid] | > 10 µM
O=C(O)c1ccc(CN(CCc2cc(F)ccc2F)c2nc3cccc(F)c3s2)cc1 [Example 35, 4-({[2-(2,5-difluorophenyl)ethyl](7-fluorobenzo[d]thiazol-2-yl)amino}methyl)benzoic acid] | > 10 µM

The next lines start with the values.

IC50 | Structure (SMILES)
< 1 µM | COc1ccc(CCN(c2nc3cc(C(F)(F)F)ccc3s2)C(C)c2ccc(C(=O)O)cc2)cc1 (stereo not shown) [Example 124, 4-(1-{[2-(4-methoxyphenyl)ethyl][5-(trifluoromethyl)benzo[d]thiazol-2-yl]amino}ethyl)benzoic acid]
< 1 µM | COc1ccc(CCN(Cc2ccc(C(=O)O)cc2)c2nc3cc(F)c(F)c(F)c3s2)cc1 [Example 87, 4-{[[2-(4-methoxyphenyl)ethyl](5,6,7-trifluorobenzo[d]thiazol-2-yl)amino]methyl}benzoic acid]
< 1 µM | COc1ccc(CCN(c2nc3cccc(F)c3s2)C(C)c2ccc(C(=O)O)cc2)c(F)c1F (stereo not shown) [Example 60, 4-(1-{[2-(2,3-difluoro-4-methoxyphenyl)ethyl](7-fluorobenzo[d]thiazol-2-yl)amino}ethyl)benzoic acid]
< 1 µM | COc1ccc(CCN(Cc2ccc(C(=O)O)cc2)c2nc3ccc([N+](=O)[O-])cc3s2)cc1 [Example 79, 4-({[2-(4-methoxyphenyl)ethyl](6-nitro-benzo[d]thiazol-2-yl)amino}methyl)benzoic acid]
< 1 µM | COc1ccc(CCN(Cc2ccc(C(=O)O)cc2)c2nc3ccc(Cl)cc3s2)cc1 [Example 84, 4-({(6-chloro-benzo[d]thiazol-2-yl)[2-(4-methoxyphenyl)ethyl]amino}methyl)benzoic acid]
< 1 µM | COc1ccc(CCN(c2nc3cccc(F)c3s2)C(C)c2ccc(C(=O)O)cc2)cc1C (stereo not shown) [Example 65, 4-(1-{(7-fluorobenzo[d]thiazol-2-yl)[2-(4-methoxy-3-methylphenyl)ethyl]amino}ethyl)benzoic acid]
< 1 µM | COc1cc(F)c(CCN(c2nc3cccc(F)c3s2)C(C)c2ccc(C(=O)O)cc2)c(F)c1 (stereo not shown) [Example 67, 4-(1-{[2-(2,6-difluoro-4-methoxyphenyl)ethyl](7-fluorobenzo[d]thiazol-2-yl)amino}ethyl)benzoic acid]
< 1 µM | CCC(c1ccc(C(=O)O)cc1)N(CCc1ccc(OC)c(F)c1F)c1nc2cccc(F)c2s1 (stereo not shown) [Example 68, 4-(1-{[2-(2,3-difluoro-4-methoxyphenyl)ethyl](7-fluorobenzo[d]thiazol-2-yl)amino}propyl)benzoic acid]
< 1 µM | COc1ccc(CCN(Cc2ccc(C(=O)O)cc2)c2nc3cc(F)cc(F)c3s2)cc1 [Example 93, 4-({(5,7-difluorobenzo[d]thiazol-2-yl)[2-(4-methoxyphenyl)ethyl]amino}methyl)benzoic acid]

Same assay, conditions: laminin 10 μg/mL in lower well, test compounds 0.39˜100 μM, 6 hours, migrated cells counted, read-out: Inhibitory activity against cell migration

IC50 | Structure (SMILES)
1 to 10 µM | COc1cccc(CCN(Cc2ccc(C(=O)O)cc2)c2nc3cccc(F)c3s2)c1 [Example 7, 4-({(7-fluorobenzo[d]thiazol-2-yl)[2-(3-methoxyphenyl)ethyl]amino}methyl)benzoic acid]

From patent US10383859B2, “Benzo[d]thiazole derivative or salt thereof, and pharmaceutical composition including same” (Yuhan Corporation, priority 2016, dated 2019)
